Experimental findings from patent publication US8198295B2, “Benzonaphthyridines” (Nycomed GmbH, priority 2002, dated 2012) are described below.

Structures can show the parent of a compound that is named as a salt. Where two headings read alike, the source gives them in different places.

In test [1] the target is PDE4 (cAMP-specific), cytosol of human polymorphonuclear leukocytes (PMNL). Description: Inhibition of PDE isoenzymes: PDE4. It counts as biochemical. The conditions noted are these: cAMP as substrate, motapizone (1 μM) present. As to the method: (§1) The PDE activity was determined according to Thompson et al. (Adv Cycl Nucl Res 10: 69-92, 1979) with some modifications (Bauer and Schwabe, Naunyn-Schmiedeberg's Arch Pharmacol 311: 193-198, 1980). The test samples contained 20 mM Tris (pH 7.4), 5 mM MgCl2, 0.5 μM CAMP or CGMP, [^3H]cAMP or [^3H]cGMP (about 30 000 cpm/sample), the PDE isoenzyme-specific additives described in greater detail below, the Indicated concentrations of inhibitor and an aliquot of the enzyme solution in a total sample volume of 200 μl. Dilution series of the compounds according to the invention were prepared in DMSO and further diluted in the samples [1:100 (v/v)], to give the desired end concentration of the inhibitors at a DMSO concentration of 1% (vN), which for its part has only a minute effect on PDE activity.
(§2) After preincubation at 37° C. for 5 minutes, the reaction was started by addition of the substrate (CAMP or cGMP). The samples were incubated at 37° C. for a further 15 min. The reaction was terminated by addition of 50 μl 0.2 N HCl. After cooling on ice for 10 minutes and addition of 25 μg 5′-nucleotidase (snake venom from Crotalus atrox), the mixture was again incubated at 37° C. for 10 min and the samples were then applied to QAE Sephadex A-25 columns (sample volume 1 ml). The columns were eluted with 2 ml of 30 mM ammonium formate (pH 6.0). The radioactivity of the eluate was measured and corrected by the corresponding blank values (measured in the presence of denatured protein); the blank values were less than 5% of the total radioactivity. In no case did the proportion of hydrolyzed nucleotide exceed 30% of the original substrate concentration.
PDE4 (cAMP-specific) was investigated in the cytosol of human polymorphonuclear leukocytes (PMNL) [isolated from leukocyte concentrates, see Schudt et al., Arch Pharmacol 1991: 344, 682-690] using CAMP as substrate. The PDE3 inhibitor motapizone (1 μM) was used to suppress the PDE3 activity emanating from contaminated platelets.
(§3) The IC50 values were determined from the concentration-inhibition curves by nonlinear regression.

The target in test [2] is T1, PDE3 (cGMP-inhibited), homogenates of human platelets (Homo sapiens, UniProt Q14432).
T1 construct: from tissue; host or cells: homogenates of human platelets
T1 sequence (Q14432 whole entry): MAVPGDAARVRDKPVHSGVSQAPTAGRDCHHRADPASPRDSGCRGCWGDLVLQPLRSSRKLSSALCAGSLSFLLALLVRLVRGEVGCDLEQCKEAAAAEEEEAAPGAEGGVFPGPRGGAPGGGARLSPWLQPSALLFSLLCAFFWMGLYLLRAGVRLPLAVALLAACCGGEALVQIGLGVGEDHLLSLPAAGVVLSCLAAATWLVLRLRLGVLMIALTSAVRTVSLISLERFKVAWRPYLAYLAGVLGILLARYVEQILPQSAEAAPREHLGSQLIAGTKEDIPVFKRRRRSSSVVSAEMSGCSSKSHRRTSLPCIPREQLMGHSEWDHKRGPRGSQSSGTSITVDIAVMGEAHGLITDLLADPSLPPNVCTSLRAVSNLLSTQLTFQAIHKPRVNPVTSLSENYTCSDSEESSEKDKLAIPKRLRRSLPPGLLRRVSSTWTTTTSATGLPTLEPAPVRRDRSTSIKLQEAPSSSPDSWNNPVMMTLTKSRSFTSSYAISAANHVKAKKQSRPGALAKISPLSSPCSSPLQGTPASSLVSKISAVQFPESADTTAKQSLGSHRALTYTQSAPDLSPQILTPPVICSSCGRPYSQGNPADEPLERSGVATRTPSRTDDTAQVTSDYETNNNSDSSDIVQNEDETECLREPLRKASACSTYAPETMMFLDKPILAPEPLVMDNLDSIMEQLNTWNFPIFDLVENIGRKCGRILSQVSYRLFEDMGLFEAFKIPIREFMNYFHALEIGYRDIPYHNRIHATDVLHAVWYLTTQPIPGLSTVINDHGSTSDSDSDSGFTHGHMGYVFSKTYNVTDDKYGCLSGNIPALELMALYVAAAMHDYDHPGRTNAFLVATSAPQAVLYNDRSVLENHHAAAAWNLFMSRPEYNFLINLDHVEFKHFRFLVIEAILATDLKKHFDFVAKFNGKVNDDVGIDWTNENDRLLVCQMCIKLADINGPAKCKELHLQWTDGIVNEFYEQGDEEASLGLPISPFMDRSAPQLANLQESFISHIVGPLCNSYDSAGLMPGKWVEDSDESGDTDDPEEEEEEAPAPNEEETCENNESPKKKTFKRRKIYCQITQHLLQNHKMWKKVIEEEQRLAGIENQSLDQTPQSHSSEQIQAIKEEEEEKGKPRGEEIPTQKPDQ
Nature of the test: Inhibition of PDE isoenzymes: PDE3. It counts as biochemical. As to the method: as §1, §2
PDE3 (cGMP-inhibited) was investigated in homogenates of human platelets (see Schudt et al., Biochem Pharmacol 1991: 42, 153-162) using CAMP or cGMP as substrate.
as §3

[3] abbreviates: homogenates of human platelets, cAMP or cGMP as substrate, read-out: PDE3 [−log IC50, mol/l] (converted).

For the molecule `CCOc1cc2c(cc1OC)C(c1ccc(C(=O)N(C(C)C)[C@@H](C)COC(=O)Cc3ccccc3)cc1)=N[C@@H]1CCN(C)C[C@H]21` [Compound 1, Phenyl-acetic acid (S)-2-({1-[4-((4aR,10bS)-9-ethoxy-8-methoxy-2-methyl-1,2,3,4a,10b-hexahydro-benzo[c][1,6]naphthyridin-6-yl)-phenyl]-methanoyl}-isopropyl-amino)-propyl ester], in test [1], the “PDE4 [−log IC50, mol/l]” value is 9.8 −log IC50, mol/l. The IC50 in test [2] was 50.1 nM.

On to `CCOc1cc2c(cc1OC)C(c1ccc(C(=O)N(C(C)C)[C@@H](C)COC(=O)c3ccccc3)cc1)=N[C@@H]1CCN(C)C[C@H]21` [Compound 2], for which, in test [1], the “PDE4 [−log IC50, mol/l]” value is given as 9 −log IC50, mol/l. The IC50 in test [2] (setting [3]) was 25.1 nM.

For `CCOc1cc2c(cc1OC)C(c1ccc(C(=O)N(C(C)C)[C@@H](C)COC(=O)c3ccc(OC)c(OC)c3)cc1)=N[C@@H]1CCN(C)C[C@H]21` [Compound 3, 3,4-Dimethoxy-benzoic acid(S)2-({1-[4-((4aR,10bS)-9-ethoxy-8-methoxy-2-methyl-1,2,3,4,4a,10b-hexahdro-benzo[c][1,6]naphthyridin-6-yl)-phenyl]-methanoyl}-isopropyl-amino)-propyl ester], the “PDE4 [−log IC50, mol/l]” value in test [1] was 9.4 −log IC50, mol/l. In test [2] (setting [3]), the IC50 was 31.6 nM.

For `CCOc1cc2c(cc1OC)C(c1ccc(C(=O)N(C(C)C)[C@@H](C)COC(=O)c3cc(OC)cc(OC)c3)cc1)=N[C@@H]1CCN(C)C[C@H]21` [Compound 4], in test [1], the “PDE4 [−log IC50, mol/l]” value was 9.3 −log IC50, mol/l. For the same molecule, the IC50 in test [2] (setting [3]) is 39.8 nM.

For the molecule `CCOc1cc2c(cc1OC)C(c1ccc(C(=O)N(C(C)C)[C@@H](C)COC(C)=O)cc1)=N[C@@H]1CCN(C)C[C@H]21` [Compound 5, Acetic acid (S-2-({1-[4-((4aR,10bS)-9-ethoxy-8-methoxy-2-methyl-1,2,3,4,4a,10b-hexahydro-benzo[c][1,6]naphthyyrdin-6-yl)-phenyl]-methanoyl}-isopropyl-amino)-propyl esterdihydrochloride], the “PDE4 [−log IC50, mol/l]” value in test [1] is recorded as 9.2 −log IC50, mol/l. Moreover, in test [2] (setting [3]), the IC50 is 79.4 nM.

As to `CCOc1cc2c(cc1OC)C(c1ccc(C(=O)N(C(C)C)C(C)CCOC(=O)c3ccccc3)cc1)=N[C@@H]1CCN(C)C[C@H]21` (stereo partly drawn) [Compound 6, Benzoic acid 3-({1-[4-((4aR,10bS)-9-ethoxy-8-methoxy-2-methyl-1,2,3,4,4a,10b-hexahydro-benzo[c][1,6]naphthyridin-6-yl)-phenyl]-methanoyl}-isopropyl-amino)-butyl ester], the “PDE4 [−log IC50, mol/l]” value in test [1] is given as 9.2 −log IC50, mol/l. For the same molecule, the IC50 in test [2] (setting [3]) was 100 nM.

As to `CCOc1cc2c(cc1OC)C(c1ccc(C(=O)N(C(C)C)C(C)CCOC(=O)Cc3ccccc3)cc1)=N[C@@H]1CCN(C)C[C@H]21` (stereo partly drawn) [Compound 7, Phenyl-acetic acid 3-({1-[4((4aR,10bS)-9-ethoxy-8-methoxy-2-methyl-1,2,3,4,4a,10b-hexahydro-benzo[c][1,6]naphthyridin-6-yl)-phenyl]-methanoyl}-isopropyl-amino)-butyl ester], the “PDE4 [−log IC50, mol/l]” value in test [1] is listed as 9.6 −log IC50, mol/l. The molecule also gave an IC50 in test [2] of 31.6 nM.

For the molecule `CCOc1cc2c(cc1OC)C(c1ccc(C(=O)N(C(C)C)C(C)CCOC(=O)Cc3ccc(OC)c(OC)c3)cc1)=N[C@@H]1CCN(C)C[C@H]21` (stereo partly drawn) [Compound 8, (3.4-Dimethoxy-phenyl)-acetic acid 3-({1-[4-((4aR,10bS)-9-ethoxy-8-methoxy-2-methyl-1,2,3,4,4a.10b-hexahydro-benzo[c][1,6]naphthyridin-6-yl)-phenyl]-methanoyl}-isopropyl-amino)-butyl ester], the “PDE4 [−log IC50, mol/l]” value in test [1] is 9.6 −log IC50, mol/l. For the same molecule, the IC50 in test [2] (setting [3]) was 50.1 nM.

In the case of `CCOc1cc2c(cc1OC)C(c1ccc(C(=O)N(C(C)C)[C@@H](C)CO)cc1)=N[C@@H]1CCN(C)C[C@H]21` [Compound 11], the “PDE4 [−log IC50, mol/l]” value in test [1] is given as 8.9 −log IC50, mol/l. In addition, the IC50 in test [2] (setting [3]) was 79.4 nM.

As for `CCOc1cc2c(cc1OC)C(c1ccc(C(=O)N(C(C)C)[C@H](C)CO)cc1)=N[C@@H]1CCN(C)C[C@H]21` [Compound 12], in test [1], the “PDE4 [−log IC50, mol/l]” value was 8.8 −log IC50, mol/l. Besides, in test [2] (setting [3]), the IC50 is 79.4 nM.
